Data reported in patent publication US20250114345A1, “COMPOUNDS AND COMPOSITIONS AS CBP/P300 DEGRADERS AND USES THEREOF” (Oncopia Therapeutics, Inc. d/b/a/ SK Life Science Labs, priority 2023, published 2025).

Assays:
p300 = molecular target: T1, p300 (Homo sapiens, UniProt Q09472); assay: P300 degradation, HiBit technology in A549 P300 HiBit cells (2 h); type: cell-based; details: 2 hrs post treatment; for Dmax: A549, A549 P300 HiBit cells; for DC50: A549 P300 HiBit cells
T1 construct: host or cells: A549 P300 HiBit cells
T1 sequence (Q09472 whole entry): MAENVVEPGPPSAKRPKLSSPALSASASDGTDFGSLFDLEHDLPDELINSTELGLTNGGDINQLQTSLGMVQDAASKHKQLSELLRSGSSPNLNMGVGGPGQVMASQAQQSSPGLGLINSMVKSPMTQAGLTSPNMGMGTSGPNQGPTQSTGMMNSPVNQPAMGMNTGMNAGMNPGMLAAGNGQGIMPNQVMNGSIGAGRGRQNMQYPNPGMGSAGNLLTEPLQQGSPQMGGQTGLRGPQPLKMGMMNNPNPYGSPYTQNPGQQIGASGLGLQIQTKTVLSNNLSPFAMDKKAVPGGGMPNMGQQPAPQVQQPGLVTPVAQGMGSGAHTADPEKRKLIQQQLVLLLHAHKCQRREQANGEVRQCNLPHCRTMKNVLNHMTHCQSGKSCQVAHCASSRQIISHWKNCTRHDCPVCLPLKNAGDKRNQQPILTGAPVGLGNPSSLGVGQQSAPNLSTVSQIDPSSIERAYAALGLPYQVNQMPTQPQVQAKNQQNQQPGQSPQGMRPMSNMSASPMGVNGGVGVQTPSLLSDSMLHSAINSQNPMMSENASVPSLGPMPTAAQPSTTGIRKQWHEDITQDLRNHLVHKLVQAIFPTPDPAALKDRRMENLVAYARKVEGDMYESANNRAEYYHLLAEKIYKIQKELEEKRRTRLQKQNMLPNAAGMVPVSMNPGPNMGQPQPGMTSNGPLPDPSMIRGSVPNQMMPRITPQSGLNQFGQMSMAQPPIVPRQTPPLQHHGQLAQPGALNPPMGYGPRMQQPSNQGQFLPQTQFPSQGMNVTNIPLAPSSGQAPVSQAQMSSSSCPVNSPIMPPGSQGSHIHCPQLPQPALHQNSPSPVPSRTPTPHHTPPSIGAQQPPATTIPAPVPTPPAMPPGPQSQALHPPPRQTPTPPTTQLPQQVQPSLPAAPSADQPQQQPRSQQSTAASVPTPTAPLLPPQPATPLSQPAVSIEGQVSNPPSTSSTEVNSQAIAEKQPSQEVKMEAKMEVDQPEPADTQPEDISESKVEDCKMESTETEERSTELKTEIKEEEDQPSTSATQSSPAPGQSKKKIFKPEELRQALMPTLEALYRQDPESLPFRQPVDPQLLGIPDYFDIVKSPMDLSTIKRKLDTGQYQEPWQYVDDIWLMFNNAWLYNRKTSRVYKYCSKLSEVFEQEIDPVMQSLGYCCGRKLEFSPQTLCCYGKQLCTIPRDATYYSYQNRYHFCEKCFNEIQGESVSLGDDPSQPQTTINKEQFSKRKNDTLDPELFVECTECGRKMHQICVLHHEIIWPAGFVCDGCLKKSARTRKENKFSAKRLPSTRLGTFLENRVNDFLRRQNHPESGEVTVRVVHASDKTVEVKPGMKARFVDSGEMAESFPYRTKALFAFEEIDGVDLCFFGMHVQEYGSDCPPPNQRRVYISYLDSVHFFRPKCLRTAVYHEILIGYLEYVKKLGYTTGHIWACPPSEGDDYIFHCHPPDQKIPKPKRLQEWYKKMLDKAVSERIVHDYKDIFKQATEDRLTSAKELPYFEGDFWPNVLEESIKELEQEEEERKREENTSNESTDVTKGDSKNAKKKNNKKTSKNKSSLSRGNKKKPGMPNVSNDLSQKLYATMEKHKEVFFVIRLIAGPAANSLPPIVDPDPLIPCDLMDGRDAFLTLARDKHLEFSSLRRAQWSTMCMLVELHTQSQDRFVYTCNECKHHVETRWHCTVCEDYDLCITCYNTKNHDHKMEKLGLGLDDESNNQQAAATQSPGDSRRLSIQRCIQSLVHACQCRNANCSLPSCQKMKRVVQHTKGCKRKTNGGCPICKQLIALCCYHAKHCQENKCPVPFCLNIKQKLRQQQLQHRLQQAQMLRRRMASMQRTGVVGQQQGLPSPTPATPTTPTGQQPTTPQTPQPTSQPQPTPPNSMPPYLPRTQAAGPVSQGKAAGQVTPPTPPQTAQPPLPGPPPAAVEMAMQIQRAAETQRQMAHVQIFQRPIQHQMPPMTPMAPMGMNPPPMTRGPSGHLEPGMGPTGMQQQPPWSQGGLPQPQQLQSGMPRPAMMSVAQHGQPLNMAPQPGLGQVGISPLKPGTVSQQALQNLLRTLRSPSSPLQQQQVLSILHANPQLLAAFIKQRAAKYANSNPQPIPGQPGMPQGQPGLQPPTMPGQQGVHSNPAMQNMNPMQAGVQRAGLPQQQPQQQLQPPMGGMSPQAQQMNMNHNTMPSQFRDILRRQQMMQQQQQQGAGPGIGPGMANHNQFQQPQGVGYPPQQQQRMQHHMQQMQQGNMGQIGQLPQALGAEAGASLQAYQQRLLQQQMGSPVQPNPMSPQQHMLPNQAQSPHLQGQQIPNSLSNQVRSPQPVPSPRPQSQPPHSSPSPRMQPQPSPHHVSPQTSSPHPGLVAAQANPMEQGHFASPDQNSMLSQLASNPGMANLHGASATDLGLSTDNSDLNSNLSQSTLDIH
How it was run: (§1)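 HiBiT knock-in A549 cells received compound in serial dilution at 37 °C under 5% CO2. Remaining tagged protein was quantified by lytic HiBiT luminescence after 10 min shaking at room temperature, yielding potency and maximal degradation.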

CBP = molecular target: T2, CBP (Homo sapiens, UniProt Q92793); assay: CBP degradation, HiBit technology in A549 CBP HiBit cells (24 h); type: cell-based; details: 24 hrs post treatment
T2 construct: host or cells: A549 CBP HiBit cells
T2 sequence (Q92793 whole entry): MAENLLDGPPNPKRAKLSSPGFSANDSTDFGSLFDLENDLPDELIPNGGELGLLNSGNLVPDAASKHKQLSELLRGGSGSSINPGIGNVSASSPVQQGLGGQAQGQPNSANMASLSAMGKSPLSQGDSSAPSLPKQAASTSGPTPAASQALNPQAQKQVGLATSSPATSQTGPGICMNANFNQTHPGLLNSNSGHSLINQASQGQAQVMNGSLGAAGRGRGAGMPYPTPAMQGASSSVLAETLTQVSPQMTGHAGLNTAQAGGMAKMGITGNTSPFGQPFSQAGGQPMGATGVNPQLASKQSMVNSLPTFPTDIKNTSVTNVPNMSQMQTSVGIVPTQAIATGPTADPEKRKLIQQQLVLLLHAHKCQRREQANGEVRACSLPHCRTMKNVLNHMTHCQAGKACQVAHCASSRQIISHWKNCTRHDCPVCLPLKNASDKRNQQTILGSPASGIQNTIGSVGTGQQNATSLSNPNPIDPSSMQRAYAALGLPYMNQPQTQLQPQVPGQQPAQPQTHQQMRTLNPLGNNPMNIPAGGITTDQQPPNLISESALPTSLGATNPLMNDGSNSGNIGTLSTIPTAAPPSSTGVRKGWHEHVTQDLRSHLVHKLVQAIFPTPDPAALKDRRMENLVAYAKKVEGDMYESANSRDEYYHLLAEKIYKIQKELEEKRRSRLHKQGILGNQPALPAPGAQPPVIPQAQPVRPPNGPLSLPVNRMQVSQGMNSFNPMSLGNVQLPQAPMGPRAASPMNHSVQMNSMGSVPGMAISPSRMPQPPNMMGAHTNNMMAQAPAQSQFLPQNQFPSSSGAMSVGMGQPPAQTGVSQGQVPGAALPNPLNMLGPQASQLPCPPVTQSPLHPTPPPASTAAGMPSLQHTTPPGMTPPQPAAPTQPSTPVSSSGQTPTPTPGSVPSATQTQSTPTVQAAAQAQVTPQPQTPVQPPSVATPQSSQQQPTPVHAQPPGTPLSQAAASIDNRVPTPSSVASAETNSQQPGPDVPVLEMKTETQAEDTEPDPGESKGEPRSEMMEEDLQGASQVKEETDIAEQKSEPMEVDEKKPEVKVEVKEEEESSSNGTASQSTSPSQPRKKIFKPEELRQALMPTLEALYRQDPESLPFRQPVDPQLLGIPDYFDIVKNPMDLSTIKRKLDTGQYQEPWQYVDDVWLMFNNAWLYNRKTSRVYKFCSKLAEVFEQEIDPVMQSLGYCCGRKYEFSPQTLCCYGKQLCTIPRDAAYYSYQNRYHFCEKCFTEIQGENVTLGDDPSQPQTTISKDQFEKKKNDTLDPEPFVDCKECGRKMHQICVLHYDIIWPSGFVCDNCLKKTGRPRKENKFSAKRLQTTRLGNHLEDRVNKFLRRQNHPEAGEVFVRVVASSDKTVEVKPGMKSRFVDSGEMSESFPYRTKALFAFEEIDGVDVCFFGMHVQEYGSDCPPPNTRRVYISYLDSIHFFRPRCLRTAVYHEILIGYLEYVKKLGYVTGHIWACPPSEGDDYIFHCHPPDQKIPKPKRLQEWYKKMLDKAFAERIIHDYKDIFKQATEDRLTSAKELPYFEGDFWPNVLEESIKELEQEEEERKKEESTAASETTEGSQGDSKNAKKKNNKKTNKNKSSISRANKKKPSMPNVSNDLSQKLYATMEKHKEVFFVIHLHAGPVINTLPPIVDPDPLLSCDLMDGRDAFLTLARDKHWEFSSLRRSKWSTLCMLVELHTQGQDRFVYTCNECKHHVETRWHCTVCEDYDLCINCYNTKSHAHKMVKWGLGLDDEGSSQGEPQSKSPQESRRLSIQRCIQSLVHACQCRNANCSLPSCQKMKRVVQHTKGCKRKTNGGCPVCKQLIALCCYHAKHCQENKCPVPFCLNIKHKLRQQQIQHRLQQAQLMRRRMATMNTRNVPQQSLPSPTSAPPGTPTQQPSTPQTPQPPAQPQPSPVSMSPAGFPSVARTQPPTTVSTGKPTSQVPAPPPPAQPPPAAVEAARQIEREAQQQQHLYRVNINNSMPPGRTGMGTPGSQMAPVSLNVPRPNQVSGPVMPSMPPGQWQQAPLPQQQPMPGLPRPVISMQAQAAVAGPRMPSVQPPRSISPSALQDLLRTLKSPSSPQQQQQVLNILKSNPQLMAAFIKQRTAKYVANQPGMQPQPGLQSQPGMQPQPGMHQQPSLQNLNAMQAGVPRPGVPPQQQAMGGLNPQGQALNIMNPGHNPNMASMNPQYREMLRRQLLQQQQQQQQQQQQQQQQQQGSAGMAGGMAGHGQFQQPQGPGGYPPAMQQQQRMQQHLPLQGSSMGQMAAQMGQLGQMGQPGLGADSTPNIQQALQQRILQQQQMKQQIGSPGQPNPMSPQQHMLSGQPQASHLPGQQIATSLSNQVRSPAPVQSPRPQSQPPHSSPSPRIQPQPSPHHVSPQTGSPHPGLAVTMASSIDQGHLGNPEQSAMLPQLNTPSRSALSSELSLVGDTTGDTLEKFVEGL
How it was run: as §1

| Dmax (p300) | DC50 (p300) | DC50 (CBP) | Dmax (CBP) | Structure (SMILES) |
| --- | --- | --- | --- | --- |
| 40 to 59% | 1 to 9.9 nM | > 1000 nM | < 20% | Cc1cc2c(N3CCCc4nc(-c5ccc(C(=O)NCC#Cc6ccc7occ(C8CCC(=O)NC8=O)c7c6)nc5)ncc43)nc(N3CCOCC3)nc2n(C)c1=O (centres unmarked) [Example B51, 5-(5-(6,8-dimethyl-2-morpholino-7-oxo-7,8-dihydropyrido[2,3-d]pyrimidin-4-yl)-5,6,7,8-tetrahydropyrido[3,2-d]pyrimidin-2-yl)-N-(3-(3-(2,6-dioxopiperidin-3-yl)benzofuran-5-yl)prop-2-yn-1-yl)picolinamide] |
| > 80% | < 1 nM | > 1000 nM | < 20% | Cc1cc2c(N3CCCc4nc(-c5ccc(C(=O)NCC#Cc6ccc7occ(C8CCC(=O)NC8=O)c7c6)nc5)ncc43)cc(C3CCOCC3)cc2n(C)c1=O (centres unmarked) [Example B53, 5-(5-(1,3-dimethyl-2-oxo-7-(tetrahydro-2H-pyran-4-yl)-1,2-dihydroquinolin-5-yl)-5,6,7,8-tetrahydropyrido[3,2-d]pyrimidin-2-yl)-N-(3-(3-(2,6-dioxopiperidin-3-yl)benzofuran-5-yl)prop-2-yn-1-yl)picolinamide] |
| > 80% | < 1 nM | > 1000 nM | < 20% | Cc1cc2c(N3CCCc4nc(-c5ccc(C(=O)NCC#Cc6ccc7occ([C@H]8CCC(=O)NC8=O)c7c6)nc5)ncc43)cc(C3CCOCC3)cc2n(C)c1=O [Example B54, (R)-5-(5-(1,3-dimethyl-2-oxo-7-(tetrahydro-2H-pyran-4-yl)-1,2-dihydroquinolin-5-yl)-5,6,7,8-tetrahydropyrido[3,2-d]pyrimidin-2-yl)-N-(3-(3-(2,6-dioxopiperidin-3-yl)benzofuran-5-yl)prop-2-yn-1-yl)picolinamide] |
| > 80% | 1 to 9.9 nM | > 1000 nM | < 20% | Cc1cc2c(N3CCCc4nc(-c5ccc(C(=O)NCC#Cc6cc7c(C8CCC(=O)NC8=O)cccc7o6)nc5)ncc43)cc(C(C)C)nc2n(C)c1=O (centres unmarked) [Example B56, N-(3-(4-(2,6-dioxopiperidin-3-yl)benzofuran-2-yl)prop-2-yn-1-yl)-5-(5-(2-isopropyl-6,8-dimethyl-7-oxo-7,8-dihydro-1,8-naphthyridin-4-yl)-5,6,7,8-tetrahydropyrido[3,2-d]pyrimidin-2-yl)picolinamide] |
| > 80% | 1 to 9.9 nM | > 1000 nM | < 20% | Cc1cc2c(N3CCOc4cc(-c5ccc(C(=O)NCC#Cc6ccc7occ(C8CCC(=O)NC8=O)c7c6)nc5)c(F)cc43)cc(N3CC4(COC4)C3)cc2n(C)c1=O (centres unmarked) [Example B58, 5-(4-(1,3-dimethyl-2-oxo-7-(2-oxa-6-azaspiro[3.3]heptan-6-yl)-1,2-dihydro-quinolin-5-yl)-6-fluoro-3,4-dihydro-2H-benzo[b][1,4]oxazin-7-yl)-N-(3-(3-(2,6-dioxopiperidin-3-yl)benzofuran-5-yl)prop-2-yn-1-yl)picolinamide] |
| > 80% | 1 to 9.9 nM | > 1000 nM | < 20% | Cc1cc(-c2ncc(N(C)c3cc(C4CCOCC4)cc4c3cc(C)c(=O)n4C)cn2)cnc1C(=O)NCC#Cc1cc2c(C3CCC(=O)NC3=O)cccc2o1 (centres unmarked) [Example B59, 5-(5-((1,3-dimethyl-2-oxo-7-(tetrahydro-2H-pyran-4-yl)-1,2-dihydroquinolin-5-yl) (methyl)amino)pyrimidin-2-yl)-N-(3-(4-(2,6-dioxopiperidin-3-yl)benzofuran-2-yl)prop-2-yn-1-yl)-3-methylpicolinamide] |
| > 80% | 1 to 9.9 nM | > 1000 nM | < 20% | Cc1cc2c(N3CCCc4nc(-c5ccc(C(=O)NCC#Cc6oc7cccc(C8CCC(=O)NC8=O)c7c6F)nc5)ncc43)cc(C3CCOCC3)cc2n(C)c1=O (centres unmarked) [Example B60, 5-(5-(1,3-dimethyl-2-oxo-7-(tetrahydro-2H-pyran-4-yl)-1,2-dihydroquinolin-5-yl)-5,6,7,8-tetrahydropyrido[3,2-d]pyrimidin-2-yl)-N-(3-(4-(2,6-dioxopiperidin-3-yl)-3-fluorobenzo-furan-2-yl)prop-2-yn-1-yl)picolinamide] |
| 60 to 79% | 1 to 9.9 nM | > 1000 nM | < 20% | Cc1cc2c(N3CCCc4nc(-c5ccc(C(=O)NCC#Cc6ccc7occ(C8CCC(=O)NC8=O)c7c6)nc5)ncc43)cc(N3CCOCC3)nc2n(C)c1=O (centres unmarked) [Example B61, 5-(5-(6,8-dimethyl-2-morpholino-7-oxo-7,8-dihydro-1,8-naphthyridin-4-yl)-5,6,7,8-tetrahydropyrido[3,2-d]pyrimidin-2-yl)-N-(3-(3-(2,6-dioxopiperidin-3-yl)benzofuran-5-yl)prop-2-yn-1-yl)picolinamide] |
| > 80% | 1 to 9.9 nM | > 1000 nM | < 20% | Cc1cc2c(N3CCCc4nc(-c5ccc(C(=O)NCC#Cc6ccc7occ(C8CCC(=O)NC8=O)c7c6)nc5)ncc43)nc(N3CCOCC3)cc2n(C)c1=O (centres unmarked) [Example B62, 5-(5-(1,3-dimethyl-7-morpholino-2-oxo-1,2-dihydro-1,6-naphthyridin-5-yl)-5,6,7,8-tetrahydropyrido[3,2-d]pyrimidin-2-yl)-N-(3-(3-(2,6-dioxopiperidin-3-yl)benzofuran-5-yl)prop-2-yn-1-yl)picolinamide] |
| > 80% | 1 to 9.9 nM | 10 to 99 nM | 20 to 39% | Cc1cc2c(N3CCOc4cc(-c5ccc(C(=O)NCC#Cc6ccc7occ(C8CCC(=O)NC8=O)c7c6)nc5)c(F)cc43)cc(N3CC(C)(O)C3)cc2n(C)c1=O (centres unmarked) [Example B63, N-(3-(3-(2,6-dioxopiperidin-3-yl)benzofuran-5-yl)prop-2-yn-1-yl)-5-(6-fluoro-4-(7-(3-hydroxy-3-methylazetidin-1-yl)-1,3-dimethyl-2-oxo-1,2-dihydroquinolin-5-yl)-3,4-dihydro-2H-benzo[b][1,4]oxazin-7-yl) picolinamide] |
| > 80% | 1 to 9.9 nM | > 1000 nM | < 20% | Cc1cc2c(N3CCCc4cc(-c5ccc(C(=O)NCC#Cc6ccc7occ(C8CCC(=O)NC8=O)c7c6)nc5)nnc43)cc(C3CCOCC3)cc2n(C)c1=O (centres unmarked) [Example B64, 5-(8-(1,3-dimethyl-2-oxo-7-(tetrahydro-2H-pyran-4-yl)-1,2-dihydroquinolin-5-yl)-5,6,7,8-tetrahydropyrido[2,3-c]pyridazin-3-yl)-N-(3-(3-(2,6-dioxopiperidin-3-yl)benzofuran-5-yl)prop-2-yn-1-yl)picolinamide] |
| > 80% | < 1 nM | > 1000 nM | < 20% | Cc1cc2c(-c3cccc4cc(-c5ccc(C(=O)NCC#Cc6ccc7occ(C8CCC(=O)NC8=O)c7c6)nc5)ncc34)nc(N3CC(O)C3)cc2n(C)c1=O (centres unmarked) [Example B66, N-(3-(3-(2,6-dioxopiperidin-3-yl)benzofuran-5-yl)prop-2-yn-1-yl)-5-(8-(7-(3-hydroxy-azetidin-1-yl)-1,3-dimethyl-2-oxo-1,2-dihydro-1,6-naphthyridin-5-yl)isoquinolin-3-yl) picolinamide] |
| > 80% | < 1 nM | 100 to 999 nM | < 20% | Cc1cc2c(N3CCCc4nc(-c5ccc(C(=O)NCC#Cc6cc7c(C8CCC(=O)NC8=O)cccc7o6)nc5)ncc43)cccc2n(C)c1=O (centres unmarked) [Example B67, 5-(5-(1,3-dimethyl-2-oxo-1,2-dihydroquinolin-5-yl)-5,6,7,8-tetrahydropyrido[3,2-d]pyrimidin-2-yl)-N-(3-(4-(2,6-dioxopiperidin-3-yl)benzofuran-2-yl)prop-2-yn-1-yl)picolinamide] |
| 60 to 79% | 1 to 9.9 nM | > 1000 nM | < 20% | Cc1cc2c(N3CCCc4nc(-c5ccc(C(=O)NCC#Cc6ccc7occ(C8CCC(=O)NC8=O)c7c6)nc5)ncc43)nc(N3CC(F)C3)cc2n(C)c1=O (centres unmarked) [Example B68, N-(3-(3-(2,6-dioxopiperidin-3-yl)benzofuran-5-yl)prop-2-yn-1-yl)-5-(5-(7-(3-fluoroazetidin-1-yl)-1,3-dimethyl-2-oxo-1,2-dihydro-1,6-naphthyridin-5-yl)-5,6,7,8-tetrahydropyrido [3,2-d]pyrimidin-2-yl)picolinamide] |
| 40 to 59% | 1 to 9.9 nM | > 1000 nM | < 20% | Cc1cc2c(N3CCCc4nc(-c5ccc(C(=O)NCC#Cc6ccc7occ(C8CCC(=O)NC8=O)c7c6)nc5)ncc43)cncc2n(C)c1=O (centres unmarked) [Example B69, 5-(5-(1,3-dimethyl-2-oxo-1,2-dihydro-1,7-naphthyridin-5-yl)-5,6,7,8-tetrahydropyrido [3,2-d]pyrimidin-2-yl)-N-(3-(3-(2,6-dioxo-piperidin-3-yl)benzofuran-5-yl)prop-2-yn-1-yl)picolinamide] |
| > 80% | 1 to 9.9 nM | > 1000 nM | < 20% | Cc1cc(-c2ncc3c(n2)CCCN3c2nc(N3CCOCC3)cc3c2cc(C)c(=O)n3C)cnc1C(=O)NCC#Cc1ccc2occ(C3CCC(=O)NC3=O)c2c1 (centres unmarked) [Example B71, 5-(5-(1,3-dimethyl-7-morpholino-2-oxo-1,2-dihydro-1,6-naphthyridin-5-yl)-5,6,7,8-tetrahydropyrido[3,2-d]pyrimidin-2-yl)-N-(3-(3-(2,6-dioxopiperidin-3-yl)benzofuran-5-yl)prop-2-yn-1-yl)-3-methylpicolinamide] |

| Structure (SMILES) | Dmax (p300) | DC50 (p300) | DC50 (CBP) | Dmax (CBP) |
| --- | --- | --- | --- | --- |
| Cc1cc2c(N3CCCc4nc(-c5ccc(C(=O)NCC#Cc6ccc7occ([C@@H]8CCC(=O)NC8=O)c7c6)nc5)ncc43)cc(C3CCOCC3)cc2n(C)c1=O [Example B55, (S)-5-(5-(1,3-dimethyl-2-oxo-7-(tetrahydro-2H-pyran-4-yl)-1,2-dihydroquinolin-5-yl)-5,6,7,8-tetrahydropyrido[3,2-d]pyrimidin-2-yl)-N-(3-(3-(2,6-dioxopiperidin-3-yl)benzofuran-5-yl)prop-2-yn-1-yl)picolinamide] | > 80% | 1 to 9.9 nM | > 1000 nM | < 20% |
